Laboratory results published in article PMC5772648, “Targeted NUDT5 inhibitors block hormone signaling in breast cancer cells” (Nature Communications, 2018).

Assays:
purified NUDT5 = target: T1, purified NUDT5 (Homo sapiens, UniProt Q9UKK9); assay: biochemical conversion of 32P-PAR to ATP and AMP by PARG and NUDT5 (TLC); settings: 0.6 µM, with NUDT5, PARG and PPi
T1 construct: His-tag (N); made in house; host or cells: E. coli BL21 (DE3) R3 pRARE2
Experimental: ^32P-NAD-labeled PAR was prepared as follows: 5 µg of purified GST-PARP1 was incubated with 2 µg of activated calf thymus DNA and 10 mM NAD +/^32P-NAD (Perkin-Elmer) at a ratio of 1:10 for 30 min at 25 °C and brought to a final volume of 100 µL with PARP reaction buffer (50 mM Tris, pH 7.5, 50 mM NaCl, 0.5 mM DTT, 0.1% Triton X-100 and protease inhibitors)[23]. After incubation, 0.4 µg of DNase was added to obtain DNA-free probes and the reaction was precipitated using TCA. The pellet was washed with acetone, dried and resuspended in 100 µl (10 mM Tris-HCl, pH 8.0, 1 mM EDTA, 0.1 % SDS, 100 µg/mL of Proteinase K) and incubated for 1 h at 37 °C, after which radio-labeled PAR was extracted using phenol/chloroform and ethanol precipitation. The pellet was resuspended in 50 µL (10 mM Tris-HCl, pH 8.0, 1 mM EDTA) and used for subsequent biochemical analyses.
Enzymatic conversion of radiolabeled ^32P-PAR by PARG and NUDT5 was performed using purified radio-labeled PAR (as described above) with the addition of recombinant bovine PARG in PAR glycohydroxylation buffer (PGB; 10 mM HEPES, pH 7.5, 150 mM KCl, 10 mM MgCl2)[23]. Recombinant PARG was added at the beginning of the reaction to a 10 µL final volume and incubated for 1 h at 25 °C. Recombinant NUDT5, pyrophosphate and/or TH5427 (0.6 µM) were added as indicated and incubated for an additional hour. […]

[1] = SafetyScreen 44 and ExpresSDiversity kinase panels (Eurofins Cerep Panlabs); design: species or system human; settings: 10 µM
Experimental: TH5427 selectivity was also studied with the SafetyScreen44™ Panel and ExpresSDiversity Kinase Panel from Eurofins Cerep Panlabs at 10 µM, according to the company’s procedures.

T47D cells = assay: R5020-induced proliferation by BrdU incorporation; assay type: cell-based; settings: 1.5 µM, 24 h after R5020
Experimental: T47D^M cells (1 × 10^4) were plated in a 96-well plate in the presence or absence of inhibitors 2 h prior to R5020 addition. The cell proliferation ELISA BrdU chemiluminescent assay (Roche) was performed according to the manufacturer’s instructions 24 h following hormone addition.

NUDT9 = target: T2, NUDT9 (Homo sapiens, UniProt Q9BW91); assay: phosphohydrolase selectivity, malachite green assay; assay type: biochemical; settings: 100 µM
T2 construct: His-tag (N); made in house; host or cells: E. coli BL21 (DE3) R3 pRARE2
T2 sequence (Q9BW91 47-350): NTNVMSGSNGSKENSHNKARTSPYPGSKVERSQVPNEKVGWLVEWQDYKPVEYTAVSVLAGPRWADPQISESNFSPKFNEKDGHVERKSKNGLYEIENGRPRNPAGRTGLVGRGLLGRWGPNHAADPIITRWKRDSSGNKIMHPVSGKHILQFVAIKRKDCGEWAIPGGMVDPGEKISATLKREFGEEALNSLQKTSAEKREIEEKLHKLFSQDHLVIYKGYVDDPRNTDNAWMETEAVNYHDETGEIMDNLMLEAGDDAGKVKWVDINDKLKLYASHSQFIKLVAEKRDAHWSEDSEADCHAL
Experimental: (§1) The selectivity assay for TH5427 against similar pyrophosphohydrolases was performed with MTH1, NUDT9, NUDT2, NUDT12, NUDT14, NUDT15, NUDT18, ITPase, dCTPase and dUTPase[9]. All analyses were performed by malachite green assay following 30 min incubation at room temperature in reaction buffer (100 mM Tris Acetate, pH 7.5, 40 mM NaCl, 10 mM MgAc, 1 mM DTT) with 100 µM TH5427 and preferred substrates for each enzyme (4.75 nM MTH1 with 100 µM dGTP, 8 nM NUDT15 with 100 µM dGTP, 8 nM NUDT2 with 16 µM AP4A, 2 nM NUDT5 with 50 µM ADPR, 20 nM NUDT9 with 50 µM ADPR, 20 nM NUDT12 with 50 µM NADH, 2 nM NUDT14 with 50 µM ADPR, 200 nM NUDT18 with 50 µM 8-oxo-dGTP, 0.2 nM ITPase with […], 35 nM dCTPase with 35 µM dCTP, and 1 nM dUTPase with 12.5 µM dUTP). MTH1, NUDT15, NUDT18, ITPase, dCTPase and dUTPase reactions were coupled with 0.2 U/mL pyrophosphatase, while NUDT2, NUDT5, NUDT9, NUDT12, and NUDT14 reactions were coupled by bovine intestinal phosphatase (10 U/mL).

NUDT14 = target: T3, NUDT14 (Homo sapiens, UniProt O95848); assay: as above; assay type: biochemical
T3 construct: His-tag (N); made in house; host or cells: E. coli BL21 (DE3) R3 pRARE2
T3 sequence (O95848 1-222): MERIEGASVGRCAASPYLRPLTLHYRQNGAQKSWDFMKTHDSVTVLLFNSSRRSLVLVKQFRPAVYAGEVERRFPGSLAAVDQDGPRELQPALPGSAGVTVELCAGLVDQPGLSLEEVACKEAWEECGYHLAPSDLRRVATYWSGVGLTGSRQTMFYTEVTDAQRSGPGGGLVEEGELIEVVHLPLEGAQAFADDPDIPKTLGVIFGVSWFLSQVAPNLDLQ
Experimental: as §1

dCTPase = target: T4, dCTPase (Homo sapiens, UniProt Q9H773); assay: as above; assay type: biochemical
T4 construct: His-tag (N, cleaved yes); made in house; host or cells: E. coli BL21 (DE3) R3 pRARE2
T4 sequence (Q9H773 1-170): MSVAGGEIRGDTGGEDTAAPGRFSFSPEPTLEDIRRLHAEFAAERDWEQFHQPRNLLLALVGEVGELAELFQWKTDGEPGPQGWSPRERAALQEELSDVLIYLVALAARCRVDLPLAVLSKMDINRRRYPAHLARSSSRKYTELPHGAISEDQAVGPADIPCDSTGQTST
Experimental: as §1

NUDT12 = target: T5, NUDT12 (Homo sapiens, UniProt Q9BQG2); assay: as above; assay type: biochemical
T5 construct: His-tag (N); made in house; host or cells: E. coli BL21 (DE3) R3 pRARE2
T5 sequence (Q9BQG2 whole entry): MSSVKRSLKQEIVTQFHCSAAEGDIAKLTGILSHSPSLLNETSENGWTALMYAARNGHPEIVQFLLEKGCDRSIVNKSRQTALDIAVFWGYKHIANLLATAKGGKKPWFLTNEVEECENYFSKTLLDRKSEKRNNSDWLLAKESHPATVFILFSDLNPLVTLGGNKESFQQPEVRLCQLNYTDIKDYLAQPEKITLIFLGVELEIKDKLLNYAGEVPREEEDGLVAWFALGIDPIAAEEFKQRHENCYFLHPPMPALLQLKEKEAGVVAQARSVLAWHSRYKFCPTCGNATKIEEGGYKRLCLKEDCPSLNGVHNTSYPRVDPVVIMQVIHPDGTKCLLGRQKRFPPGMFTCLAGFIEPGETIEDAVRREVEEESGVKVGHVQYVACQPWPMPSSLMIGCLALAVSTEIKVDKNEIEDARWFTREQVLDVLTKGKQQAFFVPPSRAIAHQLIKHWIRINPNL
Experimental: as §1

## Cn1c(=O)c2c(nc(N3CCNCC3)n2Cc2nnc(-c3ccc(Cl)c(Cl)c3)o2)n(C)c1=O [TH5427]
Purified NUDT5
  synthesis of ATP and AMP from 32P-PAR: inhibited the biochemical synthesis of ATP and AMP from ^32P-PAR
[1]
  off-target interactions in panels: only displayed a few significant interactions
T47D cells
  progestin-dependent proliferation, BrdU incorporation: abrogated the progestin-dependent proliferation response
NUDT9
  effect on NUDT9-mediated hydrolysis of ADPR: no effect
NUDT14
  inhibition at 100 µM: 38%
dCTPase
  inhibition at 100 µM: 39%
NUDT12
  inhibition at 100 µM: 66%
